Test [1] addresses Phospholipase A2, major isoenzyme (Sus scrofa) (UniProt P00592). The experiment in a line: Pre-steady-state inhibition constant against phospholipase A2. As to conditions: naja mocambique mocambique.
For test [2] the target is unchanged. Nature of the test: k_2 value calculated from 1/Ki=(1/Ks)(k2/k_2). As to conditions: naja mocambique mocambique.

Each structure is given as a SMILES string.

Phospholipase A2, major isoenzyme (Sus scrofa), sequence (P00592 23-146 limits assumed): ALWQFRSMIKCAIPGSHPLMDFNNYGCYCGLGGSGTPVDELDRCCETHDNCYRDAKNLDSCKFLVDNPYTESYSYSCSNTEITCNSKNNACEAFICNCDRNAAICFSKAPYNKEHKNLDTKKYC

Regarding `CCCCCCCCNC(=O)Oc1ccccc1OC(=O)NCCCCCCCC`, in test [1], the K2 is 0.17 s⁻¹ and the Ks came to 68 µM. Moreover, in test [2], the k 2 is 0.028 s⁻¹.

Take `CCCCCCCCNC(=O)Oc1cccc(OC(=O)NCCCCCCCC)c1`: in test [1], the K2 stood at 0.13 s⁻¹ and the Ks worked out at 16 µM. Also, the k 2 in test [2] is 0.033 s⁻¹.

Turning to `CCCCCCCCNC(=O)Oc1ccc(OC(=O)NCCCCCCCC)cc1`, in test [1], the K2 worked out at 0.21 s⁻¹ and the Ks came to 21 µM. In test [2], the k 2 was 0.15 s⁻¹.

The values above are taken from ChEMBL document CHEMBL1149216, “Benzene-di-N-octylcarbamates as conformationally constrained phospholipase A(2) inhibitors” (Bioorg Med Chem Lett, 2004).
